In general, pEC50 refers to the EC50 on a negative log10 scale, so that one unit is a factor of ten.

pEC50: −log10 of the molar value.

In one assay the target is T1, TLR9 (Homo sapiens, UniProt Q9NR96).
T1 construct: lymphocytes, monocytes and dendritic cells that express TLR7, TLR8 and TLR9; endogenous in cells; host or cells: cryopreserved human PBMCs from healthy donors
T1 sequence (Q9NR96 26-1032): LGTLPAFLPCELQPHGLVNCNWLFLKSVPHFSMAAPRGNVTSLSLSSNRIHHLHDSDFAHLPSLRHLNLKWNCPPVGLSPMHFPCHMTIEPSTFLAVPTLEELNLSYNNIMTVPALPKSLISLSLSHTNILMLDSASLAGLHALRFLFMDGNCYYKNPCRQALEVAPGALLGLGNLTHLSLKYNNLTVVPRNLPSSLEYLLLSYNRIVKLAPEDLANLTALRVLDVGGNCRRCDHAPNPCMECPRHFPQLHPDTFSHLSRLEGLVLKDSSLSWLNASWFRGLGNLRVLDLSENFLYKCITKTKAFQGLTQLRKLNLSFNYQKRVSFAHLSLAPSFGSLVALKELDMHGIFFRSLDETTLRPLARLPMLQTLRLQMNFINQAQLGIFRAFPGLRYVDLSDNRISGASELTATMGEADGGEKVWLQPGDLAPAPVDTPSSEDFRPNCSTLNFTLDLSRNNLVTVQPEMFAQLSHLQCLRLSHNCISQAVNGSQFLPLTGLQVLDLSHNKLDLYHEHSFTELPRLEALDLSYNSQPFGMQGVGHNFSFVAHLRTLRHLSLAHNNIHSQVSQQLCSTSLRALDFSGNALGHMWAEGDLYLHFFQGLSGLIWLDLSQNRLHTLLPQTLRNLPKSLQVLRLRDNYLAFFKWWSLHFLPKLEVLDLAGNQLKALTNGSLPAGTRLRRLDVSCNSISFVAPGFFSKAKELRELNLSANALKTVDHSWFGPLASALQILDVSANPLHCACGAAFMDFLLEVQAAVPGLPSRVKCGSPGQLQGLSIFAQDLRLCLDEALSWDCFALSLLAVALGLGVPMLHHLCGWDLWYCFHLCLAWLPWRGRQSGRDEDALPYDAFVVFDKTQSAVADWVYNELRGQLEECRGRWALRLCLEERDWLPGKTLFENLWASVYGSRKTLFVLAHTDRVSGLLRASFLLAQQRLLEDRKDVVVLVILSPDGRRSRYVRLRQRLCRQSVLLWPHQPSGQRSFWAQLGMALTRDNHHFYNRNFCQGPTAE
Put plainly: Human PBMC cell-based assay, TLR9 agonist stimulation. Conditions: human PBMCs; TLR9 agonist ODN-2216 3 μM; 6 hours; cytokines (IL-6 and IFNα) in supernatant; Table 2; read-out: TLR-9 EC50. An excerpt: (§1) Human Peripheral Blood Mononuclear Cell (PBMC) Cell-Based Assay
(§2) Human peripheral blood mononuclear cells (PBMCs) consist of lymphocytes, monocytes and dendritic cells that express TLR7, TLR8 and TLR9. These cells respond to TLR7, TLR8 and TLR9 ligand stimulation and produce cytokines and chemokines in vitro and in vivo. Human PBMCs are therefore suitable to be used in a cell-based assay to assess the in vitro potency of a TLR 7, 8, and/or 9 antagonist. The result is expected to be more translatable to the pharmacodynamics response in vivo than cell line-based assays.
(§3) Cryopreserved human PBMCs from healthy donors were thawed and resuspended in RPMI-1640 media with L-glutamine (Corning) supplemented with 10% Fetal Bovine Serum (Hyclone) and 1× Penicillin-Streptomycin (Corning). After counting, the cell density was adjusted to 2 million cells/ml and incubated for 1 hour at 37° C., 5% CO2 for recovery. Following the recovery, the cells were plated by adding 50p per well (100,000 cells) to 384-well cell culture plates (Greiner) containing 250 nl of test antagonists in 100% DMSO per well, in a 10 points dose response in quadruplicates. PBMCs were incubated in the presence of test antagonists for one hour at 37° C., 5% CO2 before being stimulated with a TLR7 or TLR9 agonist. GS-986 (Gilead Sciences) was used as the TLR7 agonist at a final concentration of 400 nM. ODN-2216 (InvivoGen) was used as the TLR9 agonist at a final concentration of 3μM. PBMCs were incubated in the presence of the test antagonist and the TLR7 (or TLR9) agonist for an additional 6 hours at 37° C., 5% CO2. At the end of the incubation, the cell culture plates were centrifuged at 500 g for 5 min, and the cell culture supernatant was collected. The level of cytokines (IL-6 and IFNα) in the supernatant was measured by electrochemiluminescence immunoassays (Mesoscale Discovery) following manufacturer's recommended protocols. The level of cytokine measured was plotted against the test antagonist concentration and fitted to a sigmoidal function to determine the EC50, which are shown below in Table 2.

In another assay the target is T2, TLR7 (Homo sapiens, UniProt Q9NYK1).
T2 construct: lymphocytes, monocytes and dendritic cells that express TLR7, TLR8 and TLR9; endogenous in cells; host or cells: cryopreserved human PBMCs from healthy donors
T2 sequence (Q9NYK1 27-1049): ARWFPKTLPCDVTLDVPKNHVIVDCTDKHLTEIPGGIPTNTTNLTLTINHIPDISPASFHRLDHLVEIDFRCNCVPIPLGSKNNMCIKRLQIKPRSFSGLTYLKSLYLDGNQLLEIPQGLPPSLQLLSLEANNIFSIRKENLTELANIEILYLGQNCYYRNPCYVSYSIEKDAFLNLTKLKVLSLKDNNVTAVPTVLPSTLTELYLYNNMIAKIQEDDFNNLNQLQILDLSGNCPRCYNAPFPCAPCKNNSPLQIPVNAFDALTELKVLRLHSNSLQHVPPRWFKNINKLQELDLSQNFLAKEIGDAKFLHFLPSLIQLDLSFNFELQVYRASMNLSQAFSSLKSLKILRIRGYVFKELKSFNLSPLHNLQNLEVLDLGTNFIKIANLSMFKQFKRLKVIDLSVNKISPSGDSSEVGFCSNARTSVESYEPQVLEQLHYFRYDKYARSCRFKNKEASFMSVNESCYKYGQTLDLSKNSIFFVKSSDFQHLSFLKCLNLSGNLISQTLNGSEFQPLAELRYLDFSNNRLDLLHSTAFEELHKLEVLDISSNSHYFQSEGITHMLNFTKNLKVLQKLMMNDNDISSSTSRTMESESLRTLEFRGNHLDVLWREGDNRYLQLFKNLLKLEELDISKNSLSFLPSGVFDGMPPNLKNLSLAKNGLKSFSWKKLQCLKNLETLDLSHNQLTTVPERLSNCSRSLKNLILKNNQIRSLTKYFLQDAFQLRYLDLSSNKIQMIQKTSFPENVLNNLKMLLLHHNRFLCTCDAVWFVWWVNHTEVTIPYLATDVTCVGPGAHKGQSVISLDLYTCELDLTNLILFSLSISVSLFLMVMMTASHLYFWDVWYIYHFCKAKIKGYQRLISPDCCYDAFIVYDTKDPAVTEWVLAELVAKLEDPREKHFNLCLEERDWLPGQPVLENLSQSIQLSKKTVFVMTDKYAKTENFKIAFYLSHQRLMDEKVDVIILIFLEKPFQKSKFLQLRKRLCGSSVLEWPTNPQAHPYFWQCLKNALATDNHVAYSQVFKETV
Put plainly: Human PBMC cell-based assay, TLR7 agonist stimulation. Conditions: human PBMCs; TLR7 agonist GS-986 400 nM; 6 hours; cytokines (IL-6 and IFNα) in supernatant; Table 2; read-out: TLR-7 EC50.
From the text: as §1, §2, §3

Take `Cc1cc(-c2ccc3c(C)c(-c4ccc(C(=O)N[C@H]5CCNC5)cc4)[nH]c3c2)cc(C)n1` [Example 20]: the values for the pEC50 at TLR9 and on TLR7 were 6.61 and 6.54, respectively.

On to `COc1ccc(-c2ccc3c(C)c(-c4ccc(N5CCNCC5)nc4)[nH]c3c2)cc1OC` [Example 10], for which the values for the pEC50 at TLR9 and on TLR7 were 6.29 and 7.23, respectively.

Consider `Cc1cc(-c2ccc3c(C)c(-c4ccc(N5CCN(CCO)CC5)nc4)[nH]c3c2)cc(C)n1` [Example 30, 2-(4-(5-(6-(2,6-dimethylpyridin-4-yl)-3-methyl-1H-indol-2-yl)pyridin-2-yl)piperazin-1-yl)ethan-1-ol], for which the pEC50 at TLR9 was 7.42; at TLR7 it was 7.99.

As for `Cc1c(-c2ccc(N3CCNCC3)nc2)[nH]c2cc(-c3ccnc4ccccc34)ccc12` [Example 8], the pEC50 at TLR9 is 6.43; at TLR7 it was 6.84.

On to `Cc1cc(-c2ccc3c(C)c(C4CCN(C(=O)c5cncn5C)CC4)[nH]c3c2)cc(C)n1` [Example 27], for which the pEC50 was 5.47 on TLR9 and less than 6.00 on TLR7.

As for `Cc1c(-c2ccc(N3CCNCC3)nc2)[nH]c2cc(-c3cn[nH]c3)ccc12` [Example 9], the negative-log EC50 (pEC50) at TLR9 and at TLR7 was 6.33 each time.

`Cc1cc(-c2cnc3c(C)c(-c4ccc(N5CCNCC5)nc4)[nH]c3c2)cc(C)n1` [Example 29]: the pEC50 at TLR9 was 7.11; at TLR7, 7.83.

For the compound `Cc1cc(-c2ccc3c(C)c(-c4ccc(C(=O)N5CCNCC5)cc4)[nH]c3c2)cc(C)n1` [Example 21], the figures for the pEC50 on TLR9 and on TLR7 were 7.08 and 6.90, respectively.

For the compound `Cc1cc(-c2ccc3c(C)c(C4=CCNCC4)[nH]c3c2)cc(C)n1` [Example 11, 6-(2,6-dimethylpyridin-4-yl)-3-methyl-2-(1,2,3,6-tetrahydropyridin-4-yl)-1H-indole], the pEC50 at TLR9 is 7.15; at TLR7, 6.16.

For the compound `Cc1cc(-c2ccc3c(C)c(C4CCN(C(=O)CC5CCNCC5)CC4)[nH]c3c2)cc(C)n1` [Example 26], the figures for the pEC50 at TLR9 and on TLR7 were 5.88 and less than 6.00, respectively.

With `CCc1c(-c2cnc(N3CCNCC3)nc2)[nH]c2cc(-c3cc(C)nc(C)c3)ccc12` [Example 14], the pEC50 at TLR9 is 7.43; on TLR7, 8.21.

For the compound `Cc1cc(-c2cnc3c(C)c(-c4ccc(N5CCNCC5)cc4)[nH]c3c2)cc(C)n1` [Example 28, 6-(2,6-dimethylpyridin-4-yl)-3-methyl-2-(4-(piperazin-1-yl)phenyl)-1H-pyrrolo[3,2-b]pyridine], the pEC50 on TLR9 was 6.87; at TLR7 it was 7.55.

On to `Cc1cc(-c2ccc3c(C)c(C4CCN(C(=O)CN(C)C)CC4)[nH]c3c2)cc(C)n1` [Example 24, 2-(dimethylamino)-1-(4-(6-(2,6-dimethylpyridin-4-yl)-3-methyl-1H-indol-2-yl)piperidin-1-yl)ethan-1-one], for which the pEC50 was 6.88 at TLR9 and less than 6.00 on TLR7.

Turning to `Cc1cc(-c2ccc3c(C)c(-c4cccc(C(=O)N[C@H]5CCNC5)c4)[nH]c3c2)cc(C)n1` [Example 18], the figures for the negative-log EC50 (pEC50) on TLR9 and on TLR7 were 7.01 and 6.47, respectively.

Turning to `Cc1cc(-c2ccc3c(C)c(-c4ccc(S(=O)(=O)N5CCNCC5)cc4)[nH]c3c2)cc(C)n1` [Example 15], the negative logarithm of the EC50 (pEC50) on TLR9 was 6.69; at TLR7, 6.29.

In the case of `Cc1cc(-c2ccc3c(C)c(-c4ccc(C(=O)N[C@@H]5CCNC5)cc4)[nH]c3c2)cc(C)n1` [Example 19], the pEC50 was 6.37 at TLR9 and 6.48 on TLR7.

On to `Cc1cc(-c2ccc3c(C)c(C4CCN(C(=O)c5cccnc5)CC4)[nH]c3c2)cc(C)n1` [Example 25], for which the figures for the pEC50 on TLR9 and at TLR7 were 5.55 and less than 6.00, respectively.

With `CCN1CCC(c2[nH]c3cc(-c4cc(C)nc(C)c4)ccc3c2C)CC1` [Example 13, 6-(2,6-dimethylpyridin-4-yl)-2-(1-ethylpiperidin-4-yl)-3-methyl-1H-indole], the values for the pEC50 on TLR9 and at TLR7 were 6.76 and less than 6.00, respectively.

As to `Cc1cc(-c2ccc3c(C)c(-c4cccc(C(=O)N5CCNCC5)c4)[nH]c3c2)cc(C)n1` [Example 22, (3-(6-(2,6-dimethylpyridin-4-yl)-3-methyl-1H-indol-2-yl)phenyl)(piperazin-1-yl)methanone], the pEC50 at TLR9 is 7.21; on TLR7, 7.18.

Regarding `Cc1noc(C)c1-c1ccc2c(C)c(-c3ccc(N4CCNCC4)nc3)[nH]c2c1` [Example 6], the pEC50 at TLR9 was 5.68; on TLR7 it was 6.35.

On to `Cc1c(-c2cnc(N3CCNCC3)nc2)[nH]c2cc(-c3cc(C)c4ncnn4c3)ccc12` [Example 3], for which the pEC50 was 6.77 on TLR9 and 8.57 at TLR7.

Consider `Cc1cc(-c2ccc3c(C)c(-c4cnc5c(c4)CNCC5)[nH]c3c2)cc(C)n1` [Example 16, 3-[6-(2,6-dimethyl-4-pyridyl)-3-methyl-1H-indol-2-yl]-5,6,7,8-tetrahydro-1,6-naphthyridine], for which the pEC50 at TLR9 is 7.55; on TLR7 it was 7.17.

As for `Cc1cc(-c2ccc3c(C)c(-c4cccc(C(=O)N[C@@H]5CCNC5)c4)[nH]c3c2)cc(C)n1` [Example 17, (R)-3-(6-(2,6-dimethylpyridin-4-yl)-3-methyl-1H-indol-2-yl)-N-(pyrrolidin-3-yl)benzamide], the pEC50 at TLR9 is 6.38; on TLR7, 6.71.

For the compound `Cc1cc(-c2ccc3c(C)c(-c4ccc(N5CCNCC5)nc4)[nH]c3c2)ccn1` [Example 5], the results for the pEC50 at TLR9 and on TLR7 were 7.16 and 8.36, respectively.

These data come from patent publication US20240059673A1, “SUBSTITUTED INDOLE COMPOUNDS” (Gilead Sciences, Inc., priority 2020, published 2024).
